Consider 9 compounds from ChEMBL document CHEMBL1150724, “In vitro antiviral activity of dammar resin triterpenoids” (J Nat Prod, 1987).

SMILES strings stand for the structures. ≈ marks a conversion by molar mass, not a printed value.

Assay [1] concerns Human alphaherpesvirus 2. Briefly: Antiviral activity against HSV2 MS replication infected in african green monkey Vero cells assessed as inhibition of virus-induced cytopathic effect after 48 hrs. Format: functional, organism-based. Conditions: Human alphaherpesvirus 2, MS. In general terms: Cytopathic effects are the visible damage that an infection or toxin causes in cultured cells.

The test system of assay [2] is Human alphaherpesvirus 1. Nature of the assay: Antiviral activity against HSV1 MacIntyre replication in african green monkey Vero cells assessed as inhibition of virus-induced cytopathic effect after 48 hrs. The class given is functional, organism-based. Particulars: Human alphaherpesvirus 1, MacIntyre.

For `CC1(C)CC[C@@]23CC[C@]4(C)[C@@](OC2=O)([C@@H]3C1)[C@@H](O)C[C@@H]1[C@@]2(C)CCC(=O)C(C)(C)[C@@H]2CC[C@]14C`, the 50% inhibitory concentration (IC50) in assay [1] and in assay [2] was 5 µg/mL (≈ 10.6 µM) each time.

On to `CC(C)=CCC[C@@](C)(O)[C@H]1CC[C@]2(C)[C@@H]1CC[C@@H]1[C@@]3(C)CCC(=O)C(C)(C)[C@@H]3CC[C@]12C`, for which the IC50 in assay [1] is 5 µg/mL (≈ 11.3 µM); in assay [2], 2 µg/mL (≈ 4.52 µM).

For `CC(C)=CCC[C@](C)(O)[C@H]1CC[C@]2(C)[C@@H]1CC[C@@H]1[C@@]3(C)CC[C@H](O)C(C)(C)[C@@H]3CC[C@]12C`, the IC50 in assay [1] and in assay [2] was 7 µg/mL (≈ 15.7 µM) throughout.

On to `C=C(CCC=C(C)C)[C@H]1CC[C@]2(C)[C@@H]1CC[C@@H]1[C@@]3(C)CC[C@H](O)C(C)(C)[C@@H]3CC[C@]12C` [DAMMARADIENOL], for which the IC50 in assay [1] was 3 µg/mL (≈ 7.03 µM); in assay [2], 2.5 µg/mL (≈ 5.86 µM).

Take `C=C(C)[C@@H]1CC[C@]2(C)[C@H](CC[C@@H]3[C@@H]([C@@](C)(O)CCC=C(C)C)CC[C@]32C)[C@@]1(C)CCC(=O)O` [DAMMARENOLIC ACID]: the values for the concentration for half-maximal inhibition (IC50) in assay [1] and in assay [2] were 2 µg/mL (≈ 4.36 µM) and 3 µg/mL (≈ 6.54 µM), respectively.

`C=C(C)[C@@H]1CC[C@]2(C)[C@H](CC[C@@H]3[C@@H]([C@]4(C)CC[C@@H](C(C)(C)O)O4)CC[C@]32C)[C@@]1(C)CCC(=O)O` [EICHLERIANIC ACID]: the IC50 worked out at 8 µg/mL (≈ 16.9 µM) in assay [1] and 7 µg/mL (≈ 14.7 µM) in assay [2].

For the compound `CC(C)(O)[C@H]1CC[C@@]2(C)C1CC[C@]1(C)[C@@H]2CC[C@@H]2[C@@]3(C)CCC(=O)C(C)(C)[C@@H]3CC[C@]21C` (stereo partly drawn) [HYDROXYHOPANONE], the IC50 in assay [1] was 5 µg/mL (≈ 11.3 µM); in assay [2], 7 µg/mL (≈ 15.8 µM).

With `C=C(C)[C@@H]1CC[C@]2(C)[C@H](CC[C@@H]3[C@@H]([C@]4(C)CC[C@H](C(C)(C)O)O4)CC[C@]32C)[C@@]1(C)CCC(=O)O` [SHOREIC ACID], the half-maximal inhibitory concentration (IC50) in assay [1] was 8 µg/mL (≈ 16.9 µM); in assay [2], 7 µg/mL (≈ 14.7 µM).

`C[C@H]1[C@H](C)CC[C@]2(C(=O)O)CC[C@]3(C)C(=CC[C@@H]4[C@@]5(C)CCC(=O)C(C)(C)[C@@H]5CC[C@]43C)[C@H]12` [URSONIC ACID]: the IC50 in assay [1] worked out at 8 µg/mL (≈ 17.6 µM); in assay [2] it was 2.5 µg/mL (≈ 5.5 µM).

Broadly, the IC50 is the concentration needed to halve the response being measured.
